# From PubChem BioAssay AID1963837 (Molecular Pharmacology Branch, DTP, NCI, 2024)
# pIC50: −log10 of the molar value.
# Tested on: 843126-344-R-J1-PDC complex spheroid viability
# Test: Anticancer human tumor 843126-344-R-J1-PDC patient-derived melanoma cell line growth inhibition [POLQ]
# Settings: for pIC50: curve of first compound; for viability, T/C: stronger effect = lower value
# Protocol: Multicellular complex tumor spheroid response to Polymerase (POL) inhibitors (novobiocin, ART-558, RP6685) in combination with a variety of drugs and investigational agents in selected tumor cell lines
# The POL inhibitors (novobiocin, ART-558, and RP6685) were evaluated both individually and in combination with standard of care and investigational anticancer small molecules within a complex spheroid model of solid tumors. . Complex spheroids include a stromal component modeled by human endothelial cells (HUVEC) and fibroblasts modeled by human mesenchymal stem cells (MSCs). The concentration ranges selected for each drug and investigational agent were based upon clinically achievable concentrations if the clinical Cmax of the agent was known.
# Compounds. The drugs and investigational agents: novobiocin (NSC847541), ART-558 (NSC835418), RP-6685 (NSC848927), peposertib (NSC802822), ceralasertib (NSC780249), elimusertib (NSC800525), camonsertib (NSC841442), AZD-1390 (NSC803789), olaparib (NSC753686), talazoparib (NSC767125), rucaparib (NSC756644), sotorasib (NSC818433), MRTX-1133 (NSC836407), SN-38 (NSC673596), topotecan (NSC609699), epotoside (NSC141540), doxorubicin (NSC123127), gemcitabine (NSC613327), 5-fluorouracil (NSC19893), paclitaxel (NSC125973), vemurafenib (NSC761431), MSA-2 (NSC828583), SN-011 (NSC837082), adavosertib (NSC754352), prexasertib (NSC758257), carboplatin (NSC241240) and oxaliplatin (NSC266046), were obtained from the National Cancer Institute (NCI) Developmental Therapeutics Program Chemical Repository (21). The FDA-approved anticancer drug set is available from the Developmental Therapeutics Program at https://dtp.cancer.gov/organization/dscb/obtaining/. […] The stock solutions were prepared in dimethyl sulfoxide (DMSO, Sigma-Aldrich, St. Louis, MO, cat. D2650), except for the platinum compounds which were prepared in saline (Quality Biological, Gaithersburg, MD, cat. 114-055-101), at 800-fold the tested concentration and stored at -70 degrees C prior to their use. All drugs and investigational agents were tested over a range starting from a high concentration at or near the clinical Cmax and decreasing in half-log increments. If the clinical Cmax for an agent had not been determined, the highest concentration tested was 10 microM, except for SN-38, which was tested at a high concentration of 1 microM.
# Cell Culture. All cells were maintained in an incubator at 37 degrees C and 5% CO2 with 95% humidity. The PDC lines were cultured according to standard operating procedures established by the NCI PDMR (https://pdmr.cancer.gov). Table 3 of the manuscript, lists the cell lines along with the number of the three cell types plated to form the mct-spheroids and media for tumor cell growth. After thawing, all PDC lines, except 997537-175-T-J1-PDC and 415267-285-R-J2-PDC, were cultured in Matrigel-coated flasks prepared with a working solution of 1X Ham's F-12 nutrient mix, without supplementation (Thermo Fisher Scientific, cat. 11765054), 100 U/mL penicillin-streptomycin (Thermo Fisher Scientific, cat. 15140122), and 2.5% Matrigel (Corning Inc., Corning, NY, cat. 354248) for the first three passages. The two PDC lines 997537-175-T-J1-PDC and 415267-285-R-J2-PDC were cultured on uncoated flasks. The 857933-349-R-J2-PDC line was cultured in 6C/Colon 1B media containing advanced DMEM/F-12 (Thermo Fisher Scientific, cat. 12634028), 10 mM HEPES (Thermo Fisher Scientific, cat. 15630080), 1X GlutaMAX supplement (Thermo Fisher Scientific, cat. 35050061), 0.1 mg/mL primocin (InvivoGen, San Diego, CA, cat. ant-pm-2), 10% defined fetal bovine serum, heat inactivated (HyClone Laboratories Inc., Logan, UT, cat. SH30070.03HI), 50% L-WRN conditioned media (ATCC, cat. CRL-3276), 1.25 mM N-Acetyl-L-cysteine (Sigma-Aldrich, cat. A9165), 10 mM nicotinamide (Sigma-Aldrich, cat. N0636), 1X B-27 supplement (Thermo Fisher Scientific, cat. 17504044), 1X N-2 supplement (Thermo Fisher Scientific, cat. […]
# [1] = second compound 0.0316 µM, first compound 0.0316 µM
# [2] = second compound 0.0316 µM, first compound 0.1 µM
# [3] = second compound 0.0316 µM, first compound 0.316 µM
# [4] = second compound 0.0316 µM, first compound 1 µM
# [5] = second compound 0.0316 µM, first compound 3.16 µM
# [6] = second compound 0.0316 µM, first compound 10 µM
# [7] = second compound 0.1 µM, first compound 0.0316 µM
# [8] = second compound 0.1 µM, first compound 0.1 µM
# [9] = second compound 0.1 µM, first compound 0.316 µM
# [10] = second compound 0.1 µM, first compound 1 µM
# [11] = second compound 0.1 µM, first compound 3.16 µM
# [12] = second compound 0.1 µM, first compound 10 µM
# [13] = second compound 0.316 µM, first compound 0.0316 µM
# [14] = second compound 0.316 µM, first compound 0.1 µM
# [15] = second compound 0.316 µM, first compound 0.316 µM
# [16] = second compound 0.316 µM, first compound 1 µM
# [17] = second compound 0.316 µM, first compound 3.16 µM
# [18] = second compound 0.316 µM, first compound 10 µM
# [19] = second compound 1 µM, first compound 0.0316 µM
# [20] = second compound 1 µM, first compound 0.1 µM
# [21] = second compound 1 µM, first compound 0.316 µM
# [22] = second compound 1 µM, first compound 1 µM
# [23] = second compound 1 µM, first compound 3.16 µM
# [24] = second compound 1 µM, first compound 10 µM
# [25] = second compound 3.16 µM, first compound 0.0316 µM
# [26] = second compound 3.16 µM, first compound 0.1 µM
# [27] = second compound 3.16 µM, first compound 0.316 µM
# [28] = second compound 3.16 µM, first compound 1 µM
# [29] = second compound 3.16 µM, first compound 3.16 µM
# [30] = second compound 3.16 µM, first compound 10 µM
# [31] = second compound 10 µM, first compound 0.0316 µM
# [32] = second compound 10 µM, first compound 0.1 µM
# [33] = second compound 10 µM, first compound 0.316 µM
# [34] = second compound 10 µM, first compound 1 µM
# [35] = second compound 10 µM, first compound 3.16 µM
# [36] = second compound 10 µM, first compound 10 µM
# 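Throughout, for viability, T/C: spheroids exposed to drugs for seven days before readout.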
smiles,measurement,setting,value
CNCc1ccc(-c2[nH]c3cc(F)cc4c3c2CCNC4=O)cc1 + COC1C(OC(N)=O)C(O)C(Oc2ccc3c(O)c(NC(=O)c4ccc(O)c(CC=C(C)C)c4)c(=O)oc3c2C)OC1(C)C,pIC50,second compound 0.0316 µM,< 5.00
same,pIC50,second compound 0.1 µM,< 5.00
same,pIC50,second compound 0.316 µM,< 5.00
same,pIC50,second compound 1 µM,< 5.00
same,pIC50,second compound 3.16 µM,< 5.00
same,pIC50,second compound 10 µM,< 5.00
same,"viability, T/C",[1],84.8%
same,"viability, T/C",[2],94%
same,"viability, T/C",[3],98.3%
same,"viability, T/C",[4],92.3%
same,"viability, T/C",[5],86.8%
same,"viability, T/C",[6],87%
same,"viability, T/C",[7],88%
same,"viability, T/C",[8],102%
same,"viability, T/C",[9],115%
same,"viability, T/C",[10],94.3%
same,"viability, T/C",[11],99.7%
same,"viability, T/C",[12],87.1%
same,"viability, T/C",[13],98.7%
same,"viability, T/C",[14],88.6%
same,"viability, T/C",[15],90.7%
same,"viability, T/C",[16],96.1%
same,"viability, T/C",[17],108%
same,"viability, T/C",[18],70.5%
same,"viability, T/C",[19],109%
same,"viability, T/C",[20],98.6%
same,"viability, T/C",[21],97.8%
same,"viability, T/C",[22],95.8%
same,"viability, T/C",[23],90.5%
same,"viability, T/C",[24],74.6%
same,"viability, T/C",[25],99.9%
same,"viability, T/C",[26],96.9%
same,"viability, T/C",[27],92%
same,"viability, T/C",[28],101%
same,"viability, T/C",[29],82.2%
same,"viability, T/C",[30],85.4%
same,"viability, T/C",[31],78.6%
same,"viability, T/C",[32],97%
same,"viability, T/C",[33],81%
same,"viability, T/C",[34],100%
same,"viability, T/C",[35],85.9%
same,"viability, T/C",[36],100%
C=CC(=O)N1CCN(c2nc(=O)n(-c3c(C)ccnc3C(C)C)c3nc(-c4c(O)cccc4F)c(F)cc23)C(C)C1 (stereo unspecified) + Nc1ccc(C#CCN(C(=O)Cc2ncc(C(F)(F)F)cc2C(F)(F)F)c2ccc(F)cc2)nn1,pIC50,second compound 0.0316 µM,< 5.00
same,pIC50,second compound 0.1 µM,< 5.00
same,pIC50,second compound 0.316 µM,< 5.00
same,pIC50,second compound 1 µM,< 5.00
same,pIC50,second compound 3.16 µM,< 5.00
same,pIC50,second compound 10 µM,< 5.00
same,"viability, T/C",[1],105%
same,"viability, T/C",[2],82.8%
same,"viability, T/C",[3],97.3%
same,"viability, T/C",[4],102%
same,"viability, T/C",[5],101%
same,"viability, T/C",[6],84.4%
same,"viability, T/C",[7],104%
same,"viability, T/C",[8],86.1%
same,"viability, T/C",[9],84.9%
same,"viability, T/C",[10],97.8%
same,"viability, T/C",[11],99.2%
same,"viability, T/C",[12],85.6%
same,"viability, T/C",[13],89.3%
same,"viability, T/C",[14],94.9%
same,"viability, T/C",[15],104%
same,"viability, T/C",[16],113%
same,"viability, T/C",[17],94.5%
same,"viability, T/C",[18],85.1%
same,"viability, T/C",[19],101%
same,"viability, T/C",[20],104%
same,"viability, T/C",[21],107%
same,"viability, T/C",[22],94.7%
same,"viability, T/C",[23],104%
same,"viability, T/C",[24],85.4%
same,"viability, T/C",[25],87.5%
same,"viability, T/C",[26],88.7%
same,"viability, T/C",[27],106%
same,"viability, T/C",[28],92.2%
same,"viability, T/C",[29],85.8%
same,"viability, T/C",[30],84.5%
same,"viability, T/C",[31],83.7%
same,"viability, T/C",[32],91.1%
same,"viability, T/C",[33],84.1%
same,"viability, T/C",[34],98.5%
same,"viability, T/C",[35],95.7%
same,"viability, T/C",[36],81.2%
CCc1c2c(nc3ccc(O)cc13)-c1cc3c(c(=O)n1C2)COC(=O)[C@]3(O)CC + Nc1ccc(C#CCN(C(=O)Cc2ncc(C(F)(F)F)cc2C(F)(F)F)c2ccc(F)cc2)nn1,pIC50,second compound 0.0316 µM,< 6.00
same,pIC50,second compound 0.1 µM,< 6.00
same,pIC50,second compound 0.316 µM,< 6.00
same,pIC50,second compound 1 µM,< 6.00
same,pIC50,second compound 3.16 µM,< 6.00
same,pIC50,second compound 10 µM,< 6.00
same,"viability, T/C","second compound 0.0316 µM, first compound 0.00316 µM",68.2%
same,"viability, T/C","second compound 0.0316 µM, first compound 0.01 µM",60%
same,"viability, T/C",[1],63.9%
same,"viability, T/C",[2],64.7%
same,"viability, T/C",[3],58.8%
same,"viability, T/C",[4],49.1%
same,"viability, T/C","second compound 0.1 µM, first compound 0.00316 µM",64.3%
same,"viability, T/C","second compound 0.1 µM, first compound 0.01 µM",47.4%
same,"viability, T/C",[7],59%
same,"viability, T/C",[8],65.8%
same,"viability, T/C",[9],65%
same,"viability, T/C",[10],47.9%
same,"viability, T/C","second compound 0.316 µM, first compound 0.00316 µM",69.5%
same,"viability, T/C","second compound 0.316 µM, first compound 0.01 µM",56.3%
same,"viability, T/C",[13],61.3%
same,"viability, T/C",[14],57.2%
same,"viability, T/C",[15],63.3%
same,"viability, T/C",[16],48.5%
same,"viability, T/C","second compound 1 µM, first compound 0.00316 µM",75.3%
same,"viability, T/C","second compound 1 µM, first compound 0.01 µM",46.9%
same,"viability, T/C",[19],61.3%
same,"viability, T/C",[20],62.8%
same,"viability, T/C",[21],66.5%
same,"viability, T/C",[22],46.3%
same,"viability, T/C","second compound 3.16 µM, first compound 0.00316 µM",70.3%
same,"viability, T/C","second compound 3.16 µM, first compound 0.01 µM",64.5%
same,"viability, T/C",[25],52.7%
same,"viability, T/C",[26],72.5%
same,"viability, T/C",[27],63.3%
same,"viability, T/C",[28],52.2%
same,"viability, T/C","second compound 10 µM, first compound 0.00316 µM",67.7%
same,"viability, T/C","second compound 10 µM, first compound 0.01 µM",55.2%
same,"viability, T/C",[31],54.6%
same,"viability, T/C",[32],69.8%
same,"viability, T/C",[33],65.4%
same,"viability, T/C",[34],41%
